{
  "source": "patent US11883423B2",
  "about": "“Nucleobase analogue derivatives and their applications” (BOARD OF REGENTS, THE UNIVERSITY OF TEXAS SYSTEM, priority 2014, dated 2024)",
  "key": {"[1]": {"assay": "Chemical stability in Tween 80/ethanol/water formulation (HPLC)", "assay_type": "physicochemical", "settings": "for First order degradation rate constant k: aqueous formulation, mean ± SD (n=3)", "method": "Gem-DHA was solubilized into an aqueous formulation that contains Tween 80 (10%, w/v) and ethanol (5.5%, v/v) (referred to as the Tween 80/ethanol/water formulation) to evaluate its in vivo activity. The stability of Gem-DHA in this formulation was evaluated in crimp-sealed amber glass vials under nitrogen atmosphere. Briefly, 150 μl of the Gem-DHA aqueous solution at a concentration of about 7 mg/ml were added to the amber glass vials under nitrogen atmosphere, and the vials were crimp-sealed with aluminum seals over rubber lids. At predetermined time intervals, 10 μl of the solution were diluted with 90 μl of methanol and mixed, and the concentration was measured using HPLC. Stability tests were carried out at room temperature (˜22° C.) or 4° C. in triplicates. Vitamin E was added in the formulation to a final concentration of 0.01% or 0.04% (v/v) to evaluate the effect of vitamin E on the chemical stability of Gem-DHA.\nThe degradation was slower at 4° C. […] Indeed, it was reported that a higher concentration of vitamin E may not necessarily have a higher anti-oxidative activity, as higher concentrations may sometimes lead to opposite effects (Owen S C. In: Rowe R C, Sheskey P J, Owen S C Eds, Handbook of Pharmaceutical Excipients. London, Pharmaceutical Press, 2006; 32-35).\nTo study the effect of temperature on the chemical stability of Gem-DHA, the Gem-DHA formulation in crimp-sealed vials under nitrogen was stored in room temperature, 37° C., or 60° C., protected from light. Sampling and analyses were carried out at pre-determined time points as described above. The first order degradation reaction equation was used to calculate the values of the reaction rate (k) at different temperatures (Table 2). An Arrhenius plot was constructed by plotting the In k values vs. 1/T to calculate the activation energy (Ea, in kcal/mol). The activation energy of the chemical reaction was calculated to be 12.86 kcal/mol (FIG. 2C)."}, "[2]": {"system": "TC-1 mouse lung cancer cells", "assay": "Anti-proliferative activity, MTT assay, TC-1 cells", "assay_type": "cell-based", "settings": "24 h", "method": "The anti-proliferative activity of Gem-DHA was evaluated in Panc-02, TC-1, Panc-1-Luc, and BxPC-3 cell lines. For Panc-02 and TC-1 cells, cells (1,500/well for Panc-02 and 3,000/well for TC-1) were seeded in 96-well plates and incubated at 37° C. and 5% CO2 overnight. The cells were then treated with various concentrations of Gem-DHA or other compounds for 24 h. For BxPC-3 and Panc-1-Luc cells, 3,000 and 1,000 cells/well were used, respectively, and cells were co-incubated with the Gem-DHA for 72 h. Cell viability was determined using an MTT assay as previously described (Naguib YW et al. Mol Pharm. 2014, 11(4), 1239-1249). Gemcitabine HCl was dissolved in cell culture medium, whereas Gem-DHA and DHA were dissolved in dimethylsulfoxide (DMSO). The values of IC50 were calculated using GraphPad Prism (GraphPad software, Inc., La Jolla, CA)."}, "Panc-02 cells": {"system": "Panc-02 cells", "assay": "Cytotoxicity, LDH assay, Panc-02 cells", "assay_type": "cell-based, mouse", "settings": "48 h", "method": "The cytotoxic activity of Gem-DHA was also evaluated using an LDH assay kit (Takara Clontech). Panc-02 cells were seeded in 96-well plates at 1,500 cells/well and incubated at 37° C. and 5% CO2 for 24 h, followed by treatment with Gem-DHA or gemcitabine HCl as mentioned above for 48 h. LDH activity in the cell culture medium was determined following the manufacturer's instruction."}, "Panc-02 tumor cells": {"system": "Panc-02 tumor cells", "assay": "Cytotoxicity after 4 h co-incubation, MTT test", "assay_type": "cell-based, mouse", "settings": "Panc-02 cells, at 60 μM", "method": "The mechanisms underlying the cytotoxicity of the Gem-DHA may be different from that of gemcitabine. For example, in cell culture studies, Panc-02 cells were seeded into 96-well plates (1,500 cells per well) and incubated at 37° C., 5% CO2 for 24 h. They were then co-incubated with various concentrations of Gem-DHA, gemcitabine HCl alone, or DHA alone for 4 h, and cell viability was determined using an MTT test."}, "TC-1 tumors": {"system": "TC-1 tumors", "assay": "Antitumor activity against s.c. TC-1 tumors in C57BL/6 mice", "assay_type": "in vivo", "settings": "i.p., 50 mg/kg, every 3-4 days, 4 times", "method": "Therefore, the in vivo antitumor activity of Gem-DHA against TC-1 tumor cells was also evaluated. In the mouse model with TC-1 tumors, 5×10^5 cells were s.c. injected in the right flank of female C57BL/6 mice (Charles River, 6-8 weeks). Eight days later, mice were randomized into 3 groups (n=5-6) and i.p. injected with Gem-DHA (50 mg/kg, −0.087 mmole/kg), gemcitabine HCl (26.1 mg/kg, ˜0.087 mmole/kg), or left untreated as a control. Treatments were repeated every 3-4 days for a total of 4 times. Tumor growth was monitored and tumor volume was calculated as mentioned above. […] Shown in FIG. 14B are the body weights of TC-1 tumor-bearing mice after they were treated with multiple doses of Gem-DHA."}, "[3]": {"system": "Kras-Ink4a mice that spontaneously develop pancreatic tumors", "assay": "Survival of Kras-Ink4a mice, genetically modified model of pancreatic cancer", "assay_type": "in vivo, mouse", "settings": "i.p., 50 mg/kg", "method": "Finally, the antitumor activity of Gem-DHA was also evaluated in a genetically modified mouse model of pancreatic cancer. Female Kras-Ink4a mice that spontaneously develop pancreatic tumors were obtained from Dr. Stephen Hursting's lab at the University of Texas at Austin (Lashinger L et al. Cancer Prevention Research. 2013, 6(10), 1046-1055). […] On the 20th week, one group of mice (n=5) started to receive Gem-DHA (50 mg/kg, in Tween 80/ethanol/water solution with 5% (w/v) of mannitol) by i.p. injection. The injection was repeated twice a week, once a week for the last 5 doses, for a total of 29 times. As a control, another group of mice (n=6) were left untreated. […] Shown in FIG. 15 are the survival curves of mice treated with Gem-DHA or left untreated. […] The median survival time of mice that were treated with Gem-DHA was 280 days, in comparison to 172 days for mice that were left untreated (p=0.01, Log-rank (Mantel-Cox) test)."}, "[4]": {"assay": "Plasma pharmacokinetics after i.v. injection", "assay_type": "in vivo, C57BL/6 mice", "settings": "75 mg/kg", "method": "Healthy female C57BL/6 mice (6-8 weeks) were injected intravenously (i.v.) with Gem-DHA solution at a dose of 75 mg/kg via the tail vein. At pre-determined time intervals (5, 15, 30, 60, 120, and 180 min), 3 mice were euthanized at each time point to collect plasma samples. Gem-DHA was extracted twice using ethyl acetate and analyzed using HPLC. Data were analyzed using the Pharsight WinNonlin software (Sunnyvale, Calif.)."}},
  "data": [
    {"smiles": "CC/C=C\\C/C=C\\C/C=C\\C/C=C\\C/C=C\\C/C=C\\CCC(=O)Nc1ccn(C2OC(CO)C(O)C2(F)F)c(=O)n1", "note": "(centres unmarked) [Gem-DHA, 4-(N)-Docosahexaenoyl Difluorodeoxycytidine]", "values": [
      {"measurement": "Degradation in Tween 80/ethanol/water formulation", "setting": "[1]; 4° C., compared with room temperature", "result": "slower"},
      {"measurement": "Activation energy (Ea) of the degradation", "setting": "[1]; Arrhenius plot of ln k vs 1/T", "result": 12.86, "unit": "kcal/mol"},
      {"measurement": "First order degradation rate constant k", "setting": "[1]; 37° C.", "result": "0.042 ± 0.005", "unit": "h⁻¹"},
      {"measurement": "First order degradation rate constant k", "setting": "[1]; 60° C.", "result": "0.106 ± 0.009", "unit": "h⁻¹"},
      {"measurement": "First order degradation rate constant k", "setting": "[1]; room temperature (~22° C.)", "result": "0.018 ± 0.001", "unit": "h⁻¹"},
      {"measurement": "Degradation in Tween 80/ethanol/water formulation", "setting": "[1]; room temperature (~22° C.)", "result": "found to degrade at room temperature"},
      {"measurement": "Degradation in Tween 80/ethanol/water formulation", "setting": "[1]; with vitamin E 0.01% or 0.04%, 0.01% more effective than 0.04%", "result": "slower in the presence of vitamin E"},
      {"measurement": "Inhibition of tumor cell growth (comparison)", "setting": "[2]", "result": "more effective than gemcitabine alone or the physical mixture of gemcitabine and DHA"},
      {"measurement": "Cytotoxicity, LDH assay (comparison)", "setting": "Panc-02 cells", "result": "more cytotoxic than gemcitabine HCl"},
      {"measurement": "Cytotoxicity after 4 h of co-incubation", "setting": "Panc-02 tumor cells", "result": "significant cytotoxicity"},
      {"measurement": "Control of growth of s.c. TC-1 tumors", "setting": "TC-1 tumors", "result": "more effective than a molar equivalent dose of gemcitabine HCl"},
      {"measurement": "Median survival time", "setting": "[3]; 29 injections from week 20, untreated 172 days, p=0.01", "result": 280, "unit": "days"},
      {"measurement": "Survival of the mice", "setting": "[3]; versus untreated", "result": "significantly prolonged the survival"},
      {"measurement": "Elimination from plasma (model)", "setting": "[4]", "result": "follows a bi-exponential model"}
    ]}
  ]
}
